Series [1] has as its target T1, human amylin receptor (amylin 3(a) receptor: human calcitonin receptor + RAMP-3) (Homo sapiens, UniProt O60896+P30988).
T1 construct: expressed in transfected cells
T1 sequence (P30988 25-474): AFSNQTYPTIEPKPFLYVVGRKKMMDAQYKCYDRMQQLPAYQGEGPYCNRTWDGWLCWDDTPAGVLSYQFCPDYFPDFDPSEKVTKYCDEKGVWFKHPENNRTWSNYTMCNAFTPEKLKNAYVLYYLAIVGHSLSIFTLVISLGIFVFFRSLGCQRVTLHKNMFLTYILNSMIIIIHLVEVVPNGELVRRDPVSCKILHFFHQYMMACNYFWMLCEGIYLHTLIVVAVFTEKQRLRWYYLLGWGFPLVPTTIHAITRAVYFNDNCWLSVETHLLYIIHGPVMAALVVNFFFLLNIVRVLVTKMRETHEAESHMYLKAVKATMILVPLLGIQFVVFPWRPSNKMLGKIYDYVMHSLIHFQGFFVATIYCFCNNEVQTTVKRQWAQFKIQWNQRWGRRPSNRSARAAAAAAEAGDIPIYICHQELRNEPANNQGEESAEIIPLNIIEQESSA
T1 sequence (O60896 24-148 partner): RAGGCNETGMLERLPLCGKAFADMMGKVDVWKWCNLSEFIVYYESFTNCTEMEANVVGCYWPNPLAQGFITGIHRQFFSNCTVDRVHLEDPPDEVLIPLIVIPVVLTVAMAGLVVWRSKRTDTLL
The experiment in a line: Assay (II)a functional human amylin receptor CRE-luciferase assay. The series is classed as cell-based. Particulars: Table 11. An excerpt: (§1) Activation of calcitonin and amylin (coexpression of calcitonin receptor and receptor activity modifying proteins (RAMP)) receptors lead to increased intracellular concentrations of cAMP. Consequently, transcription is activated by promoters containing multiple copies of the cAMP response element (CRE). It is thus possible to measure amylin activity by the use of a CRE luciferase reporter gene introduced into BHK cells also expressing calcitonin or amylin receptors.
(§2) A BHK570 cell line was stably transfected with the human calcitonin receptor and a CRE-responsive luciferase reporter gene. The cell line was further transfected with RAMP-3, using standard methods. This turns the calcitonin receptor into an amylin 3(a) receptor. Methotrexate, Neomycin, and Hygromycin are selection markers for luciferase, the calcitonin receptor, and RAMP-3, respectively.
(§3) To perform activity assays, BHK calcitonin (a) receptor- or amylin 3(a)-receptor/CRE-luc cells were seeded in white 96 well culture plates at a density of about 20.000 cells/well. […] After incubation overnight at 37° C. and 5% CO2, the growth medium was replaced by 50 μl/well assay medium (DMEM (without phenol red), Glutamax™, 10% FBS, and 10 mM Hepes, pH 7.4). Further, 50 μl/well of standard or sample in assay buffer were added. […] Finally, luminescence was measured on a TopCounter (Packard) in SPC (single photon counting) mode.

Series [2] has as its target T2, rat calcitonin (a) receptor (Rattus norvegicus, UniProt P32214).
T2 construct: expressed in transfected cells; host or cells: BHK tk'ts 13 (transient, FuGENE 6)
T2 sequence (P32214 25-479 isoform P32214-2 limits assumed): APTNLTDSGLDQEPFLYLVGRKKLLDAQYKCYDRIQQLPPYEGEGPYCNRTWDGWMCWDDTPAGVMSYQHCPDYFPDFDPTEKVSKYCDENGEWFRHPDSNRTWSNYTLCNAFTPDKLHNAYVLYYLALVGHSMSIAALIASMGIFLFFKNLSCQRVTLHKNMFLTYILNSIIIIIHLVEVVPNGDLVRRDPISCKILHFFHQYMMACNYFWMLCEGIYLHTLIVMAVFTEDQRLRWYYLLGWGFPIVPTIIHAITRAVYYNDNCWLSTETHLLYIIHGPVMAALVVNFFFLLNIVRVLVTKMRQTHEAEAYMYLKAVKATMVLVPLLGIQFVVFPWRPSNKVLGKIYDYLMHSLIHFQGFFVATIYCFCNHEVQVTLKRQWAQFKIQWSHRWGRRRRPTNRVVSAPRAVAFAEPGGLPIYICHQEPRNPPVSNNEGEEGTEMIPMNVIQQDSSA
The experiment in a line: Assay (II)b functional rat calcitonin receptor cAMP FlashPlate assay. Particulars: Table 11; read-out: CTa receptor rat EC50. The series is classed as cell-based. An excerpt: (§4) Activation of calcitonin and amylin (coexpression of calcitonin receptor and receptor activity modifying proteins (RAMP)) receptors lead to increased intracellular concentrations of cAMP. In order to quantify the cAMP levels in transiently transfected cells the Adenylyl Cyclase Activation FlashPlate® Assay from Perkin Elmer was used. The basic principle of the FlashPlate® Assay is a competition between radioactive and non-radioactive cAMP generated by the cells for a fixed number of binding sites.
(§5) BHK tk′ts 13 cells were transiently transfected with either rat calcitonin (a) receptor or amylin 3 (a) receptor (rat calcitonin(a) receptor+ rat RAMP3) using FuGENE® 6 (Roche), according to the manufacturers recommendations.
(§6) 24 hours after transient transfection the cells (rat calcitonin(a)—or rat amylin 3(a)—receptor cells) were added (100.000 cells/well) to the 96 well FlashPlates® with samples or standard in FlashPlate stimulation buffer with IBMX and incubated for 30 min. Detection mix was created according to manufacturers protocol and scintillation measured after 3 h of incubation on TopCounter™ (Packard).

The nature of series [3]: Assay (I) efficacy testing on appetite (food intake), ad libitum fed rat model. The settings on record: 3 nmol/kg. The series is classed as in vivo, Sprague Dawley (SD) rats. An outline of the steps: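 Ad libitum fed SD rats (200-250 g) on a reversed light cycle, housed individually, received a single 0.01-3 mg/kg dose ip, po or sc just before lights-off. Individual food intake recorded hourly for 7 h, then at 24 h and sometimes 48 h, versus vehicle; Grubbs outliers excluded.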

Series [4] in a line: Assay (IV) determination of solubility. It is filed as physicochemical. How it is done:
The polypeptide was dissolved in water at −500 nmol/ml and mixed 1:1 with a series of buffers (100 mM glycylglycine pH 3.0, 100 mM glycylglycine pH 4.0, 100 mM glycylglycine pH 5.0, 100 mM bistrispropane pH 6.0, 100 mM bistrispropane pH 6.5, 100 mM bistrispropane pH 7.0, 100 mM bistrispropane pH 7.5, 100 mM bistrispropane pH 8.0). After 18 hours at room temperature the samples were centrifuged and the polypeptide concentration determined by UPLC.

The target in series [5] is T3, human calcitonin receptor (CTa receptor) (Homo sapiens, UniProt P30988).
T3 construct: expressed in transfected cells
T3 sequence (P30988 25-474): T1 sequence (P30988 25-474)
The experiment in a line: Assay (II)a functional human calcitonin receptor CRE-luciferase assay. It is filed as cell-based. Particulars: Table 11.
From the text: as §1, §2, §3

In series [6] the target is T4, rat amylin 3(a) receptor (rat calcitonin(a) receptor + rat RAMP3) (Rattus norvegicus, UniProt P32214+Q9JJ73).
T4 construct: expressed in transfected cells; host or cells: BHK tk'ts 13 (transient, FuGENE 6)
T4 sequence (P32214 25-479 isoform P32214-2 limits assumed): T2 sequence (P32214 25-479 isoform P32214-2 limits assumed)
T4 sequence (Q9JJ73 23-147 partner): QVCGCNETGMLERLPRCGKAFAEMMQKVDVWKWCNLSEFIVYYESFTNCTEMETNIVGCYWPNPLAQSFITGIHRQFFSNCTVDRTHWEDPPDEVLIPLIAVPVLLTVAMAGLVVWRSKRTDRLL
Description: Assay (II)b functional rat amylin receptor cAMP FlashPlate assay. Particulars: Table 11. The series is classed as cell-based.
From the text: as §4, §5, §6

Where two headings read alike, the source gives them in different places. Starred links: 1 amine or outer side, 2 acyl side, 3 side chain; linkers in the order of their positions; H or OH if unused. Positions of bridges follow the written chain, without caps; N, C: chain ends. Residues, ends and D or L forms follow the SMILES beside them. Groups on a side chain read outwards from the residue. *: point of attachment. C20 diacid = O=C(O)CCCCCCCCCCCCCCCCCCC(=O)*; γGlu = O=C(O)[C@H](CCC(=O)[*:2])N[*:1] A value given as a limit tells only on which side of the number the result lay.

Turning to `CC[C@H](C)[C@H](NC(=O)[C@@H]1CCCN1C(=O)CNC(=O)[C@H](Cc1ccccc1)NC(=O)[C@H](CC(N)=O)NC(=O)[C@H](CC(N)=O)NC(=O)[C@H](CO)NC(=O)[C@H](CO)NC(=O)[C@H](Cc1c[nH]cn1)NC(=O)[C@H](Cc1c[nH]cn1)NC(=O)[C@H](CC(C)C)NC(=O)[C@H](Cc1ccccc1)NC(=O)[C@H](CCC(=O)O)NC(=O)[C@H](C)NC(=O)[C@H](CC(C)C)NC(=O)[C@H](CCCNC(=N)N)NC(=O)[C@H](CCC(N)=O)NC(=O)[C@@H](NC(=O)[C@H](C)NC(=O)[C@@H]1CSSC[C@H](NC(=O)[C@@H](N)CCCCNC(=O)CC[C@H](NC(=O)CCCCCCCCCCCCCCCCCCC(=O)O)C(=O)O)C(=O)N[C@@H](CC(N)=O)C(=O)N[C@@H]([C@@H](C)O)C(=O)N[C@@H](C)C(=O)N[C@@H]([C@@H](C)O)C(=O)N1)[C@@H](C)O)C(=O)N[C@@H](CC(C)C)C(=O)N1CCC[C@H]1C(=O)N1CCC[C@H]1C(=O)N[C@H](C(=O)N[C@@H](CC(N)=O)C(=O)N[C@H](C(=O)NCC(=O)N[C@@H](CO)C(=O)N[C@@H](Cc1c[nH]cn1)C(=O)N[C@H](C(=O)N[C@@H](Cc1ccc(O)cc1)C(N)=O)[C@@H](C)O)C(C)C)[C@@H](C)O` [compound 87] (H-K([γGlu-C20 diacid])CNTATCATQRLAEFLHHSSNNFGPILPPTNVGSHTY-NH2; disulfide 2-7 (inferred); C-terminus assumed), the EC50 in series [1] was determined as 0.142 nM; in series [2], 0.437 nM; in series [5], 0.228 nM; in series [6], 0.106 nM. Also, the “Food intake reduction 0-24 h 3 nmol/kg (%)” value in series [3] (0-24 h) was 66%. Further, the “Food intake reduction 24-48 h 3 nmol/kg (%)” value in series [3] (24-48 h) was 47%. For the same molecule, the solubility at 18 h in series [4] (pH 3.0, read-out: Solubility (μM) pH 3.0) is greater than 200 µM; in series [4] (pH 4.0, read-out: Solubility (μM) pH 4.0) it was greater than 200 µM; in series [4] (pH 5.0, read-out: Solubility (μM) pH 5.0), greater than 200 µM; in series [4] (pH 6.0, read-out: Solubility (μM) pH 6.0) it was greater than 200 µM; in series [4] (pH 6.5, read-out: Solubility (μM) pH 6.5) it was greater than 200 µM; in series [4] (pH 7.0, read-out: Solubility (μM) pH 7.0) it was greater than 200 µM. In addition, the solubility at 18 h in series [4] (pH 7.5, read-out: Solubility (μM) pH 7.5) was greater than 200 µM; in series [4] (pH 8.0, read-out: Solubility (μM) pH 8.0) it was greater than 200 µM.
